Laboratory results from PubChem BioAssay (NCI).
Values joined by “and” are separate entries in the source; they are usually repeats but may differ in a detail not shown here. Equal entries are not always repeated.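 How tested: cells in 96-well plates exposed to compound for 48 hours at five concentrations. The concentration for 50% growth inhibition is given as GI50. TGI: total growth inhibition.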

Experiments:
Assay in all cases: NCI-60 cell line screen, 48 h
[1] = system: HCT-116 colon
[2] = system: K-562 leukemia
[3] = system: OVCAR-4 ovarian
[4] = system: OVCAR-8 ovarian
[5] = system: RPMI-8226 leukemia
[6] = system: SF-268 CNS
[7] = system: SK-MEL-2 melanoma
[8] = system: SK-MEL-28 melanoma
[9] = system: SR leukemia
[10] = system: UACC-257 melanoma

For `CN(C)CC1CCC/C1=N\O` (stereo not drawn), the TGI [1] was over 100 µM, the TGI [2] was over 100 µM and the TGI [3] was over 100 µM. The TGI [4] was over 100 µM, the TGI [5] was over 100 µM and the TGI [6] was over 100 µM. The TGI [7] was over 100 µM, the TGI [8] was over 100 µM and the TGI [9] was over 100 µM. For the same molecule, the TGI [10] was over 100 µM.
Work on `CC[C@]1(O)C(=O)OCc2c1cc1n(c2=O)Cc2cc3c(N)cccc3nc2-1` yielded a TGI [1] of over 100 µM, a TGI [2] of over 100 µM and a TGI [3] of over 100 µM. For the same molecule, the TGI [4] was over 100 µM, the TGI [5] was over 100 µM and the TGI [6] was over 100 µM. It also gave a TGI [7] of over 100 µM, a TGI [8] of over 100 µM and a TGI [9] of over 100 µM. It also gave a TGI [10] of over 100 µM.
In the case of `COc1ccc(-c2ccc(-c3ccc(C(=N)N)cn3)o2)cc1`, the GI50 [1] is reported as 3.26 µM, the TGI [1] is reported as 12.9 µM and the GI50 [2] is reported as 3.97 µM. The TGI [2] was 13.5 µM, the GI50 [3] was 10.4 µM and the TGI [3] was 22.1 µM. For the same molecule, the GI50 [4] was 11.3 µM, the TGI [4] was 31.2 µM and the GI50 [5] was 2.78 µM. The TGI [5] was 10.1 µM, the GI50 [6] was 11.2 µM and the TGI [6] was 25.3 µM. It also gave a GI50 [7] of 4.91 µM, a TGI [7] of 15.9 µM and a GI50 [8] of 8.23 µM. For the same molecule, the TGI [8] was 20.9 µM, the GI50 [9] was 3.11 µM and the TGI [9] was 10.3 µM. The GI50 [10] was 2.18 µM and the TGI [10] was 4.69 µM.
`NCCCCNc1ccc2c(=O)[nH][nH]c(=O)c2c1` showed a TGI [1] of over 100 µM, a TGI [2] of over 100 µM and a TGI [3] of over 100 µM. It also gave a TGI [4] of over 100 µM, a TGI [6] of over 100 µM and a TGI [7] of over 100 µM. The TGI [8] was over 100 µM, the TGI [9] was over 100 µM and the TGI [10] was over 100 µM.
`CN1CC[C@]2(C)c3ccc(O)cc3CC3CCCC1C32C` (stereo partly drawn) showed a TGI [1] of over 100 µM, a TGI [2] of over 100 µM and a TGI [4] of over 100 µM. It also gave a TGI [5] of over 100 µM, a TGI [6] of over 100 µM and a TGI [7] of over 100 µM. For the same molecule, the TGI [8] was over 100 µM, the TGI [9] was over 100 µM and the TGI [10] was over 100 µM.
`COc1cc(/C=C2\C(=O)Nc3ccc(N(C)C)cc32)cc(OC)c1OC` gave a GI50 [1] of 2.94 µM, a TGI [1] of over 43.9 µM and a GI50 [2] of 0.58 µM. It also gave a TGI [2] of over 25.6 µM, a GI50 [3] of 3.7 µM and a TGI [3] of over 100 µM. It also gave a GI50 [4] of 4.46 µM, a TGI [4] of over 79.4 µM and a GI50 [5] of 1.11 µM. The TGI [5] was 4.14 µM, the GI50 [6] was 3.92 µM and the TGI [6] was 33.1 µM. It also gave a GI50 [7] of 2.77 µM, a TGI [7] of 8.31 µM and a GI50 [8] of 5.87 µM. The TGI [8] was over 100 µM, the GI50 [9] was 0.34 µM and the TGI [9] was 2.4 µM. It also gave a GI50 [10] of 6.73 µM and a TGI [10] of over 100 µM.
`C/C=C/C=C/C=C/C=C/C(=O)O` was tested, and the TGI [1] was over 100 µM, the TGI [2] was over 100 µM and the TGI [3] was over 100 µM. The TGI [4] was over 100 µM, the TGI [5] was over 100 µM and the TGI [6] was over 100 µM. It also gave a TGI [7] of over 100 µM, a TGI [8] of over 100 µM and a TGI [9] of over 100 µM. For the same molecule, the TGI [10] was over 100 µM.
`CCOC(=O)/C=C1\CCCC12OCCO2` gave a TGI [1] of over 100 µM, a TGI [2] of over 100 µM and a TGI [3] of over 100 µM. The TGI [4] was over 100 µM, the TGI [5] was over 100 µM and the TGI [6] was over 100 µM. The TGI [7] was over 100 µM, the TGI [8] was over 100 µM and the TGI [9] was over 100 µM. It also gave a TGI [10] of over 100 µM.
`COc1ccc(N2C(=O)[C@H]3CC(C)c4c([nH]c5ccccc45)[C@H]3C2=O)cc1` (stereo partly drawn) showed a TGI [1] of 30.8 µM, a TGI [2] of 20 µM and a TGI [3] of 30.6 µM. For the same molecule, the TGI [4] was 55.9 µM, the TGI [5] was 39.3 µM and the TGI [6] was over 76.2 µM. The TGI [7] was 16.5 µM, the TGI [8] was 57.8 µM and the TGI [9] was over 100 µM. It also gave a TGI [10] of over 93.9 µM.
Work on `COc1ccccc1/C=C/C(=O)c1ccccc1` yielded a GI50 [1] of 3.5 µM, a TGI [1] of 12.8 µM and a GI50 [2] of 3.41 µM. It also gave a TGI [2] of over 100 µM, a GI50 [3] of 9.33 µM and a TGI [3] of 25.9 µM. The GI50 [4] was 11.2 µM, the TGI [4] was 28 µM and the GI50 [5] was 0.56 µM. The TGI [5] was 3.16 µM, the GI50 [6] was 13.1 µM and the TGI [6] was 27 µM. The GI50 [7] was 12 µM, the TGI [7] was 26.4 µM and the GI50 [8] was 16.6 µM. For the same molecule, the TGI [8] was 30.8 µM, the GI50 [9] was 1.77 µM and the GI50 [10] was 13.8 µM. For the same molecule, the TGI [10] was 27.4 µM.
`Cc1ccc(-c2csc(NC(=O)CN3CCN(c4cc5c(cc4F)c(=O)c(C(=O)O)cn5C4CC4)CC3)n2)cc1` gave a GI50 [1] of 0.348 µM, a TGI [1] of 14.8 µM and a GI50 [2] of 0.771 µM. For the same molecule, the TGI [2] was over 100 µM, the GI50 [3] was 2.38 µM and the TGI [3] was over 100 µM. For the same molecule, the GI50 [4] was 0.388 µM, the TGI [4] was 11.7 µM and the GI50 [5] was 0.331 µM. For the same molecule, the TGI [5] was 1.47 µM, the GI50 [6] was 0.493 µM and the TGI [6] was over 100 µM. For the same molecule, the GI50 [7] was 1.33 µM, the TGI [7] was 4.09 µM and the GI50 [8] was 1.94 µM. The TGI [8] was over 100 µM, the GI50 [9] was 0.645 µM and the TGI [9] was 6.87 µM. For the same molecule, the GI50 [10] was 1.91 µM and the TGI [10] was 6.18 µM.
With `Cc1cc2c(cc1Cl)SC1=NN(C)C(N(C)C)N1S2(=O)=O` (stereo not drawn) the GI50 [1] was over 100 µM, the TGI [1] was over 100 µM and the GI50 [2] was over 100 µM. It also gave a TGI [2] of over 100 µM, a GI50 [3] of over 100 µM and a TGI [3] of over 100 µM. It also gave a GI50 [4] of over 100 µM, a TGI [4] of over 100 µM and a GI50 [5] of over 100 µM. For the same molecule, the TGI [5] was over 100 µM, the GI50 [6] was over 100 µM and the TGI [6] was over 100 µM. It also gave a GI50 [7] of over 100 µM, a TGI [7] of over 100 µM and a GI50 [8] of over 100 µM. It also gave a TGI [8] of over 100 µM, a GI50 [9] of over 100 µM and a TGI [9] of over 100 µM. It also gave a GI50 [10] of over 100 µM and a TGI [10] of over 100 µM.
Molecule `Cc1ccc(-c2cc(-c3ccco3)c(C#N)c(=O)n2C2OC(OC(=O)c3ccccc3)C(OC(=O)c3ccccc3)C2OC(=O)c2ccccc2)cc1` (stereo not drawn) has a TGI [1] of over 100 µM, a TGI [2] of over 100 µM and a TGI [4] of over 100 µM. For the same molecule, the TGI [5] was over 100 µM, the TGI [6] was over 100 µM and the TGI [7] was over 100 µM. For the same molecule, the TGI [8] was over 100 µM and the TGI [9] was over 100 µM.
For `N#CCCN(CCC#N)c1ccc(C(Sc2ccccc2)C(NC(=O)c2cc([N+](=O)[O-])ccc2Cl)C(=O)Sc2ccccc2)cc1` (stereo not drawn), the GI50 [1] was 1.85 µM, the TGI [1] was 5.51 µM and 5.62 µM and the GI50 [2] was 1.71 µM. The TGI [2] was 7.42 µM and 6.69 µM, the GI50 [3] was 3.92 µM and the TGI [3] was 15.7 µM. The GI50 [4] was 1.63 µM, the TGI [4] was 4.95 µM and 3.69 µM and the TGI [5] was 5.66 µM. For the same molecule, the GI50 [6] was 1.27 µM, the TGI [6] was 8.86 µM and 5.95 µM and the TGI [7] was 4.64 µM. The GI50 [8] was 3.24 µM, the TGI [8] was 7.06 µM and 14.2 µM and the TGI [9] was 3.9 µM. It also gave a GI50 [10] of 3.06 µM and a TGI [10] of 14.3 µM.
`C[C@]12CCCC(=O)C1(O)C[C@H](C(=O)O)CC2` (stereo partly drawn) gave a TGI [1] of over 100 µM, a TGI [2] of over 100 µM and a TGI [3] of over 100 µM. For the same molecule, the TGI [4] was over 100 µM, the TGI [5] was over 100 µM and the TGI [6] was over 100 µM. For the same molecule, the TGI [7] was over 100 µM, the TGI [8] was over 100 µM and the TGI [9] was over 100 µM. It also gave a TGI [10] of over 100 µM.
For `NC(N)=NCCC1OC(=O)C2=C1c1c(O)ccc3nccc(c13)O2` (stereo not drawn), the GI50 [1] was over 100 µM, the TGI [1] was over 100 µM and the GI50 [2] was over 100 µM. It also gave a TGI [2] of over 100 µM, a GI50 [4] of over 100 µM and a TGI [4] of over 100 µM. For the same molecule, the GI50 [5] was over 100 µM, the TGI [5] was over 100 µM and the GI50 [6] was 23.8 µM. The TGI [6] was over 100 µM, the GI50 [7] was over 100 µM and the TGI [7] was over 100 µM. The GI50 [8] was over 100 µM, the TGI [8] was over 100 µM and the GI50 [9] was over 100 µM. It also gave a TGI [9] of over 100 µM, a GI50 [10] of 1.73 µM and a TGI [10] of over 100 µM.
Work on `Cc1cc(C)c(C(=O)c2no[n+]([O-])c2C(=O)c2c(C)cc(C)c(Br)c2C)c(C)c1Br` yielded a TGI [1] of 21.9 µM, a TGI [3] of 50 µM and a TGI [4] of 27.1 µM. For the same molecule, the TGI [5] was 38.9 µM, the TGI [6] was 29.8 µM and the TGI [7] was 30.9 µM. For the same molecule, the TGI [8] was 27.5 µM and the TGI [9] was 8.42 µM.
